# Values of other authors as cited in patent US11565004B2, “In vivo imaging of matrix metalloproteinases in lung disease” (The Trustees of Columbia University in the City of New York, priority 2016, dated 2023).
# System: MMPs-1, -2, -3, -7, -9, -12, and -13
smiles,measurement,value
COc1ccc(S(=O)(=O)N(Cc2cccnc2)[C@@H](C(=O)NO)C(C)C)cc1 [CGS27023A],affinities against MMPs,high affinities
